Legend:
EAAT2 [1] = test: [3H]glutamate uptake assay in PA-EAAT2 cells; type: cell-based, human; conditions: PA-EAAT2 cells (FIG. 6D)
Protocol: (§1) Characterization and efficacy studies of a compound, Compound 212320 (FIG. 6A) is shown. […] In the absence of serum, PA-EAAT2 cells express low amounts of EAAT2 protein, although the recombinant EAAT2 mRNA are expressed (translational silencing); however, EAAT2 protein levels are increased when an activator is added to the culture (translational activation). This cell line was used for high-throughput screening to identify EAAT2 translational activators. To prioritize candidate compounds, we initially evaluated activation of EAAT2 protein in PA-EAAT2 cells. Promising compounds were further evaluated in primary dissociated neuron and astrocyte mixed cultures and then in mice. FIG. 6 presents the characterization of Compound 212320 in PA-EAAT2 cells. Compound 212320 increased EAAT2 protein levels in a dose—(FIG. 6B) and time—(FIG. 6C) dependent manner. Importantly, the induction occurred in a short amount of time (within 1-2 hr) and was sustained even up to 72 hr (data not show). Additionally, induction occurred at low nanomolar concentrations. […] (FIG. 6D).

EAAT2 [2] = test: Immunofluorescent staining of induced EAAT2 protein in PA-EAAT2 cells; type: cell-based, human; conditions: PA-EAAT2 cells (FIG. 6E)
Protocol: as §1

[3] = system: primary dissociated neuron and astrocyte mixed cultures; test: Glutamate-induced excitotoxicity in primary neuron and astrocyte mixed cultures (LDH assay, MAP2 immunostaining); type: cell-based; conditions: for MAP2-positive neurons left compared to the control: 0.1 mM glutamate
[4] = system: male C57/BL6 mice, focal cerebral ischemia; test: Stroke model, transient middle cerebral artery occlusion (MCAO); type: in vivo, mouse; conditions: 24 hours after surgery
Protocol: Compound 212320 was evaluated in the transient middle cerebral artery occlusion (MCAO), a well-characterized model of focal cerebral ischemia (experimental stroke). Adult male C57/BL6 mice (60-70 days old) were used. The internal carotid artery was occluded for 60 min. Following reperfusion, mice received 40 mg/kg of Compound 212320 by intraperitoneal injection. 24 hours after surgery, brains were removed and processed to determine infarct volume.
Mice received 40 mg/kg Compound 212320 or vehicle intraperitoneally and 24 h after stroke, brains were processed to measure infarct volume.

[5] = system: All other targets (seventy-one targets tested); test: In vitro side effect profiling: all other of seventy-one targets; conditions: 10 μM, duplicate
Protocol: (§2) To assess Compound 212320's biological activity and selectivity, we performed an in vitro side effect profiling study. Seventy-one targets were tested at 10 μM in duplicate. These targets include neurotransmitter related receptors (30), steroids (2), ion channels (6), second messenger (1), prostaglandins (3), growth factors/hormones (4), brain/gut peptides (13), enzymes (5) and cytochrome p450 (7). […] Additionally, we performed a protein kinase profiling study. Compound 212320 was tested at 1 and 10 μM against 288 kinases. […] These studies indicate that Compound 212320 has high specificity and low side-effects/toxicity potential.

EAAT2 [6] = test: EAAT2 protein levels in PA-EAAT2 cells by Western blot; type: cell-based, human
Protocol: All of the derivates of 1 were initially evaluated in PA-EAAT2 cells^3 (a primary astrocyte line stably expressing EAAT2 mRNAs) following compound (10 μM) incubation for 4 and 24 h before harvesting and measuring EAAT2 levels by Western blot analysis. The fold increases in EAAT2 protein levels relative to DMSO controls are reported (Tables 1-4).
as §1

EAAT2 [7] = test: EAAT2 protein levels and glutamate uptake in forebrain plasma membrane vesicles after i.p. administration; type: in vivo, mouse; conditions: for EAAT2 protein levels increase / Glutamate uptake increase: single i.p. 40 mg/kg
Protocol: We next examined EAAT2 protein levels and glutamate uptake activities in brain following i.p. administration of Compound 212320 in C57BL/6 mice. Plasma membrane vesicles were prepared from mouse forebrains to measure functional EAAT2 protein. After a single i.p. dose of Compound 212320 at 40 mg/kg, EAAT2 protein levels and associated glutamate uptake increased to ˜1.5-2-fold at 2 hr and to ˜2-3-fold from 8 hr to 24 hr post-injection (FIG. 8B). Even at 72 hr, a ˜1.5 fold increase in EAAT2 protein levels could still be detected (data not shown). In addition, Compound 212320-induced EAAT2 protein levels and glutamate uptake were both dose-dependent (FIG. 8C). This induction was not due to transcriptional activation because EAAT2 mRNA was not increased as measured by quantitative real-time RT-PCR (FIG. 8D). We compared ceftriaxone (200 mg/kg), which increases EAAT2 expression through transcriptional activation, with Compound 212320 (40 mg/kg) that activates EAAT2 translation.

EAAT2 mRNA = test: Quantitative real-time RT-PCR of EAAT2 mRNA in PA-EAAT2 cells; type: cell-based, human; conditions: PA-EAAT2 cells (FIG. 6F)
Protocol: as §1

calcium channel L-type = test: In vitro side effect profiling: calcium channel L-type; type: binding; conditions: 10 μM, duplicate
Protocol: as §2

[8] = from 8 hr to 24 hr post-injection

Cc1ccccc1CSc1ccc(-c2ccccn2)nn1 [Compound 7-4]
Glutamate uptake function (EAAT2 [1]): correlated to increased EAAT2 protein levels
Localization of induced EAAT2 protein (EAAT2 [2]): properly localized to the plasma membrane
Neuronal loss and degeneration (MAP2 immunostaining) ([3]; FIG. 7D): significantly prevented
Toxicity in all assays ([3]; cell culture assays): did not cause any detectable toxicity
Glutamate-induced cytotoxicity (LDH assay) ([3]; glutamate for 2 hr (FIG. 7C)): significantly reduced
MAP2-positive neurons left compared to the control ([3]; pretreatment at 2 μM): 40.4±6.4%
MAP2-positive neurons left compared to the control ([3]; pretreatment at 3 μM): 60.9±7.3%
Protective effects after pretreatment with dihydrokainic acid (DHK), an EAAT2 blocker ([3]; with DHK pretreatment): partially abolished
Decrease of infarct volume ([4]; 40 mg/kg i.p. following reperfusion, vs vehicle): 57%
Infarct volume ([4]; 40 mg/kg i.p., n=6): 6.8±1.6
inhibition, all other targets [5]: < 30%
Concentrations at which EAAT2 induction occurred (EAAT2 [6]; PA-EAAT2 cells): low nanomolar
Time in which EAAT2 induction occurred (EAAT2 [6]; PA-EAAT2 cells): 1 to 2 h
Time up to which EAAT2 induction was sustained (EAAT2 [6]; PA-EAAT2 cells, data not shown): up to 72 hr
EAAT2 protein levels (EAAT2 [6]; PA-EAAT2 cells, dose- and time-dependent manner (FIG. 6B, 6C)): increased
Fold increase for EAAT2, 4 h (EAAT2 [6]; compound 10 μM, 4 h incubation, PA-EAAT2 cells, relative to DMSO controls, na = not active): 1.7 ± 0.1 fold
Fold increase for EAAT2, 24 h (EAAT2 [6]; compound 10 μM, 24 h incubation, PA-EAAT2 cells, relative to DMSO controls, na = not active): 3.5 ± 0.3 fold
SAR comparison of activity on EAAT2 protein levels, in words (EAAT2 [6]; relative to parent/comparator analogue, Tables 1-4): increased potency
EAAT2 induction compared with ceftriaxone (EAAT2 [7]; 40 mg/kg vs ceftriaxone 200 mg/kg, a single dose after 24 hr): greater EAAT2 induction than ceftriaxone
Induced EAAT2 protein levels, dose dependence (EAAT2 [7]; FIG. 8C): dose-dependent
Induced glutamate uptake, dose dependence (EAAT2 [7]; FIG. 8C): dose-dependent
EAAT2 protein levels increase (EAAT2 [7]; 2 hr post-injection): 1.5-2 fold
Glutamate uptake increase (EAAT2 [7]; 2 hr post-injection): 1.5-2 fold
EAAT2 protein levels increase (EAAT2 [7]; 72 hr, data not shown): ~1.5 fold
EAAT2 protein levels increase (EAAT2 [7]; [8]): 2-3 fold
Glutamate uptake increase (EAAT2 [7]; [8]): 2-3 fold
EAAT2 mRNA levels (EAAT2 mRNA): not changed
inhibition on calcium channel L-type (calcium channel L-type): 43%
